{"source": "patent US9492471B2", "about": "“Methods of treating a disease or disorder associated with Bruton'S Tyrosine Kinase” (Celgene Avilomics Research, Inc., priority 2013, dated 2016)", "assay_in_all_cases": "HotSpot kinase profiling", "format_in_all_cases": "biochemical", "key": {"BRAF": {"molecular_target": "T1, BRAF (Homo sapiens, UniProt P15056)", "T1 construct": "purchased Reaction Biology Corp", "T1 sequence (P15056 whole entry)": "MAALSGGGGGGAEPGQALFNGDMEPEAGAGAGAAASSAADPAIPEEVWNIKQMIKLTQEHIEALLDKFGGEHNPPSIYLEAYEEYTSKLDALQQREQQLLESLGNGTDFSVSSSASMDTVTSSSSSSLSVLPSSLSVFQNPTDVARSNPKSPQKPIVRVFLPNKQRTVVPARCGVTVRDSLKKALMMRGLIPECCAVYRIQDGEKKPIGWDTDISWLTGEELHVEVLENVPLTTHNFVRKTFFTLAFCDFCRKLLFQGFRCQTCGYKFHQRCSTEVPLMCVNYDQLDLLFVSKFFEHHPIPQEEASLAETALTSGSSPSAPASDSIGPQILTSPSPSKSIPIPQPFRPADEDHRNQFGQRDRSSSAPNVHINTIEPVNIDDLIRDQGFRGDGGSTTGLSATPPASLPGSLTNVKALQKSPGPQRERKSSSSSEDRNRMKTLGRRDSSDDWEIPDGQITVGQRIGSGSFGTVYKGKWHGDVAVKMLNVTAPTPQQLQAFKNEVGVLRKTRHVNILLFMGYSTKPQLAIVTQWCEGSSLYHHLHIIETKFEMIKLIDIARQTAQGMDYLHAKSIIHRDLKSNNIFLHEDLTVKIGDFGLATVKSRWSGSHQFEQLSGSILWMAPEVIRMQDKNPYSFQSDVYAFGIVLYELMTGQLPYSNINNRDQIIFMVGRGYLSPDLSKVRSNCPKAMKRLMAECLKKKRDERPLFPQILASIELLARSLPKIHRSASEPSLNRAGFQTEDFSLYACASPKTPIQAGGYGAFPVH", "procedure,_shortened": "(§1)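 Radiometric kinase assay with P81 filter capture; each kinase was added to fresh substrate plus cofactors in reaction buffer and incubated 2 h at room temperature. Unreacted phosphate was washed off with 0.1% phosphoric acid before detection; percent inhibition is relative to DMSO control, averaged over replicates.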"}, "MNK1": {"molecular_target": "T2, MNK1 (Homo sapiens, UniProt Q9BUB5)", "T2 construct": "purchased Reaction Biology Corp", "T2 sequence (Q9BUB5 whole entry)": "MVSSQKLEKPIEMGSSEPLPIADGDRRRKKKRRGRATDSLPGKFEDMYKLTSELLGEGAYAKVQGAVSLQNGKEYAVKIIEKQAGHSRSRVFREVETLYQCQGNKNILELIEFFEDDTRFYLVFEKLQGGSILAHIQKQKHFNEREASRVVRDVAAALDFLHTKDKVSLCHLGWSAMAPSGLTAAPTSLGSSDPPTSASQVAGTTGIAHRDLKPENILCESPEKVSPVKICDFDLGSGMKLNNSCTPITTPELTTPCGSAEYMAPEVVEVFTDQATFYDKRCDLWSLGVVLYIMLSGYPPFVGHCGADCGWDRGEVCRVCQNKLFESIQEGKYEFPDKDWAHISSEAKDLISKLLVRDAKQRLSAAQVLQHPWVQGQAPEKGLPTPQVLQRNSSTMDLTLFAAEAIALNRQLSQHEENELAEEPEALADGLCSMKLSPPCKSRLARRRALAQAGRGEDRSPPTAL", "procedure,_shortened": "as §1"}, "PAK5": {"molecular_target": "T3, PAK5 (Homo sapiens, UniProt Q9P286)", "T3 construct": "purchased Reaction Biology Corp", "T3 sequence (Q9P286 whole entry)": "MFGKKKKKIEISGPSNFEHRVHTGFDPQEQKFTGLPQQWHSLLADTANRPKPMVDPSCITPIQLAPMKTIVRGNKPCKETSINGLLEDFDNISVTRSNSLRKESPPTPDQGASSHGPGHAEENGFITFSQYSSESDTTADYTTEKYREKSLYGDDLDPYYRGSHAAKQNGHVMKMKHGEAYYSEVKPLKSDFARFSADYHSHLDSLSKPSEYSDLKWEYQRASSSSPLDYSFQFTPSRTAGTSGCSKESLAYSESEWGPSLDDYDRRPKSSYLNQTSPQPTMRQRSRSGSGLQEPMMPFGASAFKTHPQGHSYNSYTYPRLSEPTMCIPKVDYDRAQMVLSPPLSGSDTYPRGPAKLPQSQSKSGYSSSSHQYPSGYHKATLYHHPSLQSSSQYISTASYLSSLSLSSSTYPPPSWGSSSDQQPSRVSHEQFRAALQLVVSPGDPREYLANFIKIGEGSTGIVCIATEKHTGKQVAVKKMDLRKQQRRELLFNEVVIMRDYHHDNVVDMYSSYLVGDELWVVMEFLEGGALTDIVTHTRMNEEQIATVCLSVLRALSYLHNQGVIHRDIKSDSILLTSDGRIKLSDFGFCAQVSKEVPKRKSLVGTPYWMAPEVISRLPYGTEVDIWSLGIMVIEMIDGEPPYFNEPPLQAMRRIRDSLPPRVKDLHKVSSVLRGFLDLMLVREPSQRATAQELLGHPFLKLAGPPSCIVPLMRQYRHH", "procedure,_shortened": "as §1"}, "CAMK4": {"molecular_target": "T4, CAMK4 (Homo sapiens, UniProt Q16566)", "T4 construct": "purchased Reaction Biology Corp", "T4 sequence (Q16566 1-473)": "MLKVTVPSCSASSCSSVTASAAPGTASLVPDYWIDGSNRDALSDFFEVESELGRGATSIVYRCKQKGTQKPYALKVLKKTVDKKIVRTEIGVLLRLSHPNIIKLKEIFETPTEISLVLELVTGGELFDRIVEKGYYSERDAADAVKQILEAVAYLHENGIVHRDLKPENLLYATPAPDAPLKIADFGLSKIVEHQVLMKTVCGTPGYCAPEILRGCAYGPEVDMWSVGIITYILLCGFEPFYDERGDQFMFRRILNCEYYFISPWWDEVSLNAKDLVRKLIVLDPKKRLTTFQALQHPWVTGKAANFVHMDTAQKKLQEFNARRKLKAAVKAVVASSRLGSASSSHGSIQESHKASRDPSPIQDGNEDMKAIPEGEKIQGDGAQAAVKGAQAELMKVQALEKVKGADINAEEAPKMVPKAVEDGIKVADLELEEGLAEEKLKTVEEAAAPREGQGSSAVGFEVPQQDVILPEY", "procedure,_shortened": "as §1"}, "c-MER": {"molecular_target": "T5, c-MER (Homo sapiens, UniProt Q12866)", "T5 construct": "purchased Reaction Biology Corp", "T5 sequence (Q12866 21-999)": "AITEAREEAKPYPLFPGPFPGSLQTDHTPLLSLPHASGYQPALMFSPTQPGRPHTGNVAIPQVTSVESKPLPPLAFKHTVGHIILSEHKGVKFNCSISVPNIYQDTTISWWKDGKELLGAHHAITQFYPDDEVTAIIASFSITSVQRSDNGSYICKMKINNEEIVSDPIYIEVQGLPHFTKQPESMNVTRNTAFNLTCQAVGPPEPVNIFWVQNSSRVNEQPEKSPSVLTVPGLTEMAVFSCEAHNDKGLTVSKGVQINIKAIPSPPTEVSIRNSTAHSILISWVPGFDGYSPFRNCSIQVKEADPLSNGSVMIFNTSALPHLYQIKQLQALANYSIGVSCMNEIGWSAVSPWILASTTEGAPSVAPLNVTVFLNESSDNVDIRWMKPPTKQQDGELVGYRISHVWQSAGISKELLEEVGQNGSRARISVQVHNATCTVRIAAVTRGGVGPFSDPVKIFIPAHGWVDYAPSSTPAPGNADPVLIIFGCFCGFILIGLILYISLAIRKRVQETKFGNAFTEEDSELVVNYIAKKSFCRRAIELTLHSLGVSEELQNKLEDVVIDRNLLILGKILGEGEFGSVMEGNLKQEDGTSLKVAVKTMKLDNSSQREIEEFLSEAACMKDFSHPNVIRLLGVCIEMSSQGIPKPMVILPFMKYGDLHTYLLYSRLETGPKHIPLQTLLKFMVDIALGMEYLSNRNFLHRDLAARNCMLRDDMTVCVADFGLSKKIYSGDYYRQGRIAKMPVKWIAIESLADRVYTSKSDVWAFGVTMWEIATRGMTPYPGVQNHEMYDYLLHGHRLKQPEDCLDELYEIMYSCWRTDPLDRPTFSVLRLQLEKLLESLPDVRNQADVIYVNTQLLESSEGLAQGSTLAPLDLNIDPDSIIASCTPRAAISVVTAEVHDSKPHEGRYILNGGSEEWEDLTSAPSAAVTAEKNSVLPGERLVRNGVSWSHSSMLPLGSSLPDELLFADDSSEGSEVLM", "procedure,_shortened": "as §1"}, "BLK": {"molecular_target": "T6, BLK (Homo sapiens, UniProt P51451)", "T6 construct": "purchased Reaction Biology Corp", "T6 sequence (P51451 whole entry)": "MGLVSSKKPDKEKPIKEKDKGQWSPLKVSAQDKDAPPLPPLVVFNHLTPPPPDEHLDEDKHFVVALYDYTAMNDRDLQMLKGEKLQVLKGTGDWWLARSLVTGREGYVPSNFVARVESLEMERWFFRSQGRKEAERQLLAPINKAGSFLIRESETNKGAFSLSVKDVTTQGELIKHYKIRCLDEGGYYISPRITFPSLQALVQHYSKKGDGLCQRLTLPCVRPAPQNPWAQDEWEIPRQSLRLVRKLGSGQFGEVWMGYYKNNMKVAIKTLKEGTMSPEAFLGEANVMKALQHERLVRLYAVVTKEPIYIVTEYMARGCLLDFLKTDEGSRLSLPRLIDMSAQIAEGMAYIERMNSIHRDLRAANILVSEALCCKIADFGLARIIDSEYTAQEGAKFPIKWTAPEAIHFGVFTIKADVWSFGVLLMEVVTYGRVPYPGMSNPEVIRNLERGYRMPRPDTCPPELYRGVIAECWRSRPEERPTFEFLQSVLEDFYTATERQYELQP", "procedure,_shortened": "as §1"}, "[1]": {"settings": "read-out: % Enzyme Activity (relative to DMSO controls) Run 1"}, "[2]": {"settings": "read-out: % Enzyme Activity (relative to DMSO controls) Run 2"}}, "note": "Where two headings read alike, the source gives them in different places.", "data": [{"smiles": "C=CC(=O)Nc1cccc(Nc2nc(Nc3ccc(OCCOC)c(F)c3)ncc2F)c1", "note": "[Compound 2]", "values": [{"measurement": "inhibition at 3 µM", "setting": "BRAF", "value": 0.04, "unit": "%"}, {"measurement": "remaining activity at 3 µM", "setting": "BRAF; [1]", "value": 101, "unit": "%"}, {"measurement": "remaining activity at 3 µM", "setting": "BRAF; [2]", "value": 99.1, "unit": "%"}, {"measurement": "inhibition at 3 µM", "setting": "MNK1", "value": 3.98, "unit": "%"}, {"measurement": "remaining activity at 3 µM", "setting": "MNK1; [1]", "value": 97.8, "unit": "%"}, {"measurement": "remaining activity at 3 µM", "setting": "MNK1; [2]", "value": 94.3, "unit": "%"}, {"measurement": "inhibition at 3 µM", "setting": "PAK5", "value": -27.4, "unit": "%"}, {"measurement": "remaining activity at 3 µM", "setting": "PAK5; [1]", "value": 123, "unit": "%"}, {"measurement": "remaining activity at 3 µM", "setting": "PAK5; [2]", "value": 132, "unit": "%"}, {"measurement": "inhibition at 3 µM", "setting": "CAMK4", "value": -2.26, "unit": "%"}, {"measurement": "remaining activity at 3 µM", "setting": "CAMK4; [1]", "value": 102, "unit": "%"}, {"measurement": "remaining activity at 3 µM", "setting": "CAMK4; [2]", "value": 102, "unit": "%"}, {"measurement": "inhibition at 3 µM", "setting": "c-MER", "value": 33.6, "unit": "%"}, {"measurement": "remaining activity at 3 µM", "setting": "c-MER; [1]", "value": 66.5, "unit": "%"}, {"measurement": "remaining activity at 3 µM", "setting": "c-MER; [2]", "value": 66.4, "unit": "%"}, {"measurement": "inhibition at 3 µM", "setting": "BLK", "value": 93.7, "unit": "%"}, {"measurement": "remaining activity at 3 µM", "setting": "BLK; [1]", "value": 6.3, "unit": "%"}, {"measurement": "remaining activity at 3 µM", "setting": "BLK; [2]", "value": 6.37, "unit": "%"}]}]}
